ChEMBL document CHEMBL1153329, “Bioactive metabolites produced by Chaetomium globosum, an endophytic fungus isolated from Ginkgo biloba” (Bioorg Med Chem Lett, 2009)

Key:
[1] = Toxicity against Artemia salina assessed as mortality rate at 10 ug/mL after 24 hrs by small modified microtiter-plate method; format: organism-based; settings: in vivo, read-out: Activity
[2] = test system: Rhizomucor miehei; experiment: Antimicrobial activity against Mucor miehei at 10 ug/disk by agar diffusion method; format: functional; settings: read-out: IZ

Row | Structure (SMILES) | mortality at 24 h, 10 ug/mL [1] [%] | zone of inhibition at 10 µg/disc [2] [mm]
1 | C[C@H](/C=C/C1=CC2=C(Cl)C(=O)[C@@]3(C)O[C@]4(O)[C@H](C)[C@@H](C)OC(=O)[C@@H]4[C@H]3C2=CO1)[C@@H](C)O [CHAETOMUGILIN A] | 78.3 | –
2 | C/C1=C\[C@@H](C)C/C=C/[C@H]2[C@@H]3O[C@]3(C)[C@@H](C)[C@H]3[C@H](Cc4c[nH]c5ccccc45)NC(=O)[C@]32C(=O)CCC(=O)C1=O [CHAETOGLOBOSIN C] | 75.3 | 15
3 | C/C1=C\[C@@H](C)C/C=C/[C@H]2[C@@H]3O[C@]3(C)[C@@H](C)[C@H]3[C@H](Cc4c[nH]c5ccccc45)NC(=O)[C@]32C(=O)/C=C/C(=O)[C@@H]1O [CHAETOGLOBOSIN A] | 83.4 | 25
4 | CC[C@H](C)/C=C/C1=CC2=C(Cl)C(=O)[C@@]3(C)O[C@]4(O)[C@H](C)[C@@H](C)OC(=O)[C@@H]4[C@H]3C2=CO1 [CHAETOMUGILIN D] | 75.2 | –
